[1] = in 2,2,4-trimethylpentane, 298.2 K
[2] = in 2,2,4-trimethylpentane, 308.2 K
[3] = in 2,2,4-trimethylpentane, 318.2 K

solubility (mole fraction) [1] | solubility (mole fraction) [2] | solubility (mole fraction) [3] | solubility (mole fraction) (in ethanol, 298.2 K) | solubility (mole fraction) (in ethanol, 308.2 K) | solubility (mole fraction) (in ethanol, 318.2 K) | SMILES
0.00119 | 0.00152 | 0.00177 | 0.000505 | 0.000665 | 0.00078 | c1ccc2cc3ccccc3cc2c1
0.0246 | 0.0378 | 0.0484 | 0.0119 | 0.0159 | 0.019 | c1ccc2c(c1)ccc1ccccc12
